In patent publication US20190328832A1, “ANTIMICROBIAL COMBINATIONS” (HELPERBY THERAPEUTICS LIMITED, priority 2016, published 2019):

System: log phase NDM-1 Klebsiella Pneumoniae (BAA2473 strain)
Assay: Time-kill method over 24 hours against log phase NDM-1 Klebsiella pneumoniae (CFU counts)
Format: cell-based
Settings: perphenazine alone at 128 mg/L, FIG. 1
Protocol: The objective of this example was to test the synergistic effect of perphenazine and colistin (in the form of colistimethate sodium) in combination against log phase NDM-1 Klebsiella Pneumoniae by time-kill methods over a time period of 24 hours. As described hereinabove, time-kill methods are another accepted test for ascertaining the presence or absence of synergy, and involve comparing the dynamic effect of a drug combination with each drug alone when assessing the effect on bacterial log or stationary-growth over time.
Materials and Methods • 1. Bacterial strain used: BAA2473 strain of Klebsiella pneumoniae • 2. Growth of bacteria: Log phase growth of BAA2473 was carried out according to known methods in the art, e.g. SOP R-005-00 Log Phase Growth of Bacteria. • 3. Compound preparation: • i. Perphenazine was ordered from Sigma Aldrich® UK. • ii. Colistin was obtained as Colistimethate sodium (Forest Laboratories UK 1 million I. U. 80 mg). • 4. The overnight culture was diluted with nutrient broth (Oxoid) to […] and 280 μl and 290 ul of the culture was added to each combination well and drug respectively, to make the final concentration of 300 μl. • 5. Incubation of the compounds with the bacterial suspension was carried out for 24 hours. At 0, 2, 4, 7 and 24 hours, CFU counts were performed to measure the kill effects of the drug combination.

OCCN1CCN(CCCN2c3ccccc3Sc3ccc(Cl)cc32)CC1 [perphenazine, 2-[4-[3-(2-chloro-10H-phenothiazin-10-yl)propyl]piperazin-1-yl]ethanol]
effect against NDM-1 K. pneumoniae (time-kill, Log CFU/ml): little or no effect
